Columns and labels:
KAT2B = KAT2B (Homo sapiens, UniProt Q92831); assay: KAT2B degradation, Western Blot (Jess), NCI-H1048 cells; assay type: cell-based; set-up: degrader, Western blot (Jess); settings: NCI-H1048 cells, KAT2B, 24 h, Western Blot, vs DMSO; read-out: KAT2B NCI-H1048 DC50
Summary of the method: (§1)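 DC50 came from protein loss relative to DMSO, measured by Jess capillary immunoblot of RIPA lysates with chemiluminescence read-out. Before lysis, NCI-H1048 cells in 5% FBS HITES medium were exposed to compound for 24 h at 37° C.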

KAT2A = KAT2A (Homo sapiens, UniProt Q92830); assay: KAT2A degradation, Western Blot (Jess), NCI-H1048 cells; assay type: cell-based; set-up: degrader, Western blot (Jess); settings: NCI-H1048 cells, KAT2A, 24 h, Western Blot, vs DMSO; read-out: KAT2A NCI-H1048 DC50
KAT2A, sequence (Q92830 whole entry): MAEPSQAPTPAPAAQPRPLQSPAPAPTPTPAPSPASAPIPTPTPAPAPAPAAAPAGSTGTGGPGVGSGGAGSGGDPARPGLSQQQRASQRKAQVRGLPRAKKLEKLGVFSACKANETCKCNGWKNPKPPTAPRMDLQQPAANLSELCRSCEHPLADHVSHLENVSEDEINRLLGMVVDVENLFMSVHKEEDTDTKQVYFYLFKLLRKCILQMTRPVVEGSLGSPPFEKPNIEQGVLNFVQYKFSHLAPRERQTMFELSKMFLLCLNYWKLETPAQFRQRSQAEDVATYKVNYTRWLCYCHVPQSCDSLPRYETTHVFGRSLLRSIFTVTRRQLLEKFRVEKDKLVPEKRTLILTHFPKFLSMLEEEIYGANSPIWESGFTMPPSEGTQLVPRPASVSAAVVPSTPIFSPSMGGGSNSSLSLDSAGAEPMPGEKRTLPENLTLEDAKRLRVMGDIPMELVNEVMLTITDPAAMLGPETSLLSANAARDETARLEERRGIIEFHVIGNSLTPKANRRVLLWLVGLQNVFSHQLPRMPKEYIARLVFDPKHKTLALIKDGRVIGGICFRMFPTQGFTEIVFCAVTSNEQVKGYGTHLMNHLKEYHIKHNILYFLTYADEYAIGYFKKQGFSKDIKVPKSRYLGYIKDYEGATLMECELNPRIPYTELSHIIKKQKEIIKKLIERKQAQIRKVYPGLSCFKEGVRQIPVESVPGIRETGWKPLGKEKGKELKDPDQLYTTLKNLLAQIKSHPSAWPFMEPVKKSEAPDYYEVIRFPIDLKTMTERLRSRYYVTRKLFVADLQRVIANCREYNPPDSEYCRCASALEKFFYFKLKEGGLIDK
Summary of the method: as §1

KAT2B, sequence (Q92831 whole entry): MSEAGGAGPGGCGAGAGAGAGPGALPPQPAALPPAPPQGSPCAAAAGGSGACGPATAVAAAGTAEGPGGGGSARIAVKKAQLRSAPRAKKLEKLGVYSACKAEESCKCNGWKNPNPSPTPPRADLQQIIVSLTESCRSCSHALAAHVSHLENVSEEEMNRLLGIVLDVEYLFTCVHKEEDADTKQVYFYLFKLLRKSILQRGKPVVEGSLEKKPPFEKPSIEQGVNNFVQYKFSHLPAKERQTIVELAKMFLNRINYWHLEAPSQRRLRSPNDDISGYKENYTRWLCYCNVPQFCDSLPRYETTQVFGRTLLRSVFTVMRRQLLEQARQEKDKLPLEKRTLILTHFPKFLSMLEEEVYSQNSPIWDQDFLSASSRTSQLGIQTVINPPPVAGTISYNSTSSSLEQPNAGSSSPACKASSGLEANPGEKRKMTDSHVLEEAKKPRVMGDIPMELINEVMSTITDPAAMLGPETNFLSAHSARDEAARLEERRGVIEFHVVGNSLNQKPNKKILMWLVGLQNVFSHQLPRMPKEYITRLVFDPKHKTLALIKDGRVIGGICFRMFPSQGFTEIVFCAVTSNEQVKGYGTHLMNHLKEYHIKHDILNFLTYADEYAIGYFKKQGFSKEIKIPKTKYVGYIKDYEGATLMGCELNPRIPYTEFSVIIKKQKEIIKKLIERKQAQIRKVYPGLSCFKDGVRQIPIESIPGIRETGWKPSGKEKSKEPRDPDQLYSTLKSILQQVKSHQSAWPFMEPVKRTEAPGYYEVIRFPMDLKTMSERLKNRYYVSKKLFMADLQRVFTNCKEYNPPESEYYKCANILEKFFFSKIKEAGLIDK

Compound: CN1C[C@H](Nc2cnn(C)c(=O)c2Br)C[C@H](c2ccc(C(=O)N3CCC(Cc4ccc(C5CCC(=O)NC5=O)c(F)c4)CC3)cc2)C1 (stereo partly shown) [Compound 328]
- DC50 (KAT2B): < 1 nM
- DC50 (KAT2A): < 1 nM

Compound: CN1C[C@H](Nc2cnn(C)c(=O)c2Cl)C[C@H](c2ccc(C(=O)N3CCC4(CCC(c5ccc6c(C7CCC(=O)NC7=O)cncc6c5)CC4)CC3)cc2)C1 (stereo partly shown) [Compound 329]
- DC50 (KAT2B): < 1 nM
- DC50 (KAT2A): < 1 nM

Compound: CN1C[C@H](Nc2cnn(C)c(=O)c2Br)C[C@H](c2ccc(C(=O)N3CCC(c4ccc5c(C6CCC(=O)NC6=O)cncc5c4)CC3)cc2)C1 (stereo partly shown) [Compound 330]
- DC50 (KAT2B): > 30 nM
- DC50 (KAT2A): < 1 nM

Compound: CN1C[C@H](Nc2cnn(C)c(=O)c2Cl)C[C@H](c2ccc(C(=O)N3CCC(c4ccc5c(C6CCC(=O)NC6=O)cncc5c4)CC3)cc2)C1 (stereo partly shown) [Compound 331]
- DC50 (KAT2B): > 30 nM
- DC50 (KAT2A): < 1 nM

Compound: CN1C[C@H](Nc2cnn(C)c(=O)c2Cl)C[C@H](c2ccc(C(=O)N3CCC(C#Cc4ccc(C5CCC(=O)NC5=O)cc4)CC3)cc2)C1 (stereo partly shown) [Compound 332]
- DC50 (KAT2B): > 30 nM
- DC50 (KAT2A): < 1 nM

Compound: Cc1c(N[C@@H]2C[C@H](c3ccc(C(=O)N4CCC(C#Cc5ccc(C6CCC(=O)NC6=O)cc5)CC4)cc3)CN(C)C2)cnn(C)c1=O (stereo partly shown) [Compound 333]
- DC50 (KAT2B): > 30 nM
- DC50 (KAT2A): < 1 nM

Compound: CN1C[C@H](Nc2cnn(C)c(=O)c2Br)C[C@H](c2ccc(C(=O)N3CCC(C#Cc4ccc(C5CCC(=O)NC5=O)cc4)CC3)cc2)C1 (stereo partly shown) [Compound 334]
- DC50 (KAT2B): 1 to 30 nM
- DC50 (KAT2A): < 1 nM

Compound: CN1C[C@H](Nc2cnn(C)c(=O)c2Br)C[C@H](c2ccc(C(=O)N3CC(C#Cc4ccc(C5CCC(=O)NC5=O)cc4)C3)cc2)C1 (stereo partly shown) [Compound 335]
- DC50 (KAT2B): > 30 nM
- DC50 (KAT2A): < 1 nM

Compound: CN1C[C@H](Nc2cnn(C)c(=O)c2Cl)C[C@H](c2ccc(C(=O)N3CC(C#Cc4ccc(C5CCC(=O)NC5=O)cc4)C3)cc2)C1 (stereo partly shown) [Compound 336]
- DC50 (KAT2B): > 30 nM
- DC50 (KAT2A): < 1 nM

Compound: CN1C[C@H](Nc2cnn(C)c(=O)c2Br)C[C@H](c2ccc(C(=O)N3CC(C#Cc4ccc(C5CCC(=O)NC5=O)cc4)C3)cc2)C1 (stereo partly shown) [Compound 337]
- DC50 (KAT2B): > 30 nM
- DC50 (KAT2A): < 1 nM

Compound: Cc1cc(N2CCC3(CCN(Cc4ccc([C@H]5C[C@@H](Nc6cnn(C)c(=O)c6Cl)CN(C)C5)cc4)CC3)CC2)ccc1C1CCC(=O)NC1=O (stereo partly shown) [Compound 338]
- DC50 (KAT2B): < 1 nM
- DC50 (KAT2A): < 1 nM

Compound: Cc1cc(N2CCC3(CCN(Cc4ccc([C@H]5C[C@@H](Nc6cnn(C)c(=O)c6C)CN(C)C5)cc4)CC3)CC2)ccc1C1CCC(=O)NC1=O (stereo partly shown) [Compound 339]
- DC50 (KAT2B): < 1 nM
- DC50 (KAT2A): < 1 nM

Compound: CN1C[C@H](Nc2cnn(C)c(=O)c2Cl)C[C@H](c2ccc(CN3CCC4(CC3)CCN(c3ccc(C5CCC(=O)NC5=O)c(F)c3)CC4)cc2)C1 (stereo partly shown) [Compound 340]
- DC50 (KAT2B): < 1 nM
- DC50 (KAT2A): < 1 nM

Compound: CN1C[C@H](Nc2cnn(C)c(=O)c2Cl)C[C@H](c2ccc(CN3CCN(c4ccc(F)c(C5CCC(=O)NC5=O)c4)CC3)cc2)C1 (stereo partly shown) [Compound 341]
- DC50 (KAT2B): 1 to 30 nM
- DC50 (KAT2A): < 1 nM

Compound: Cc1c(N[C@@H]2C[C@H](c3ccc(CN4CCN(c5ccc(F)c(C6CCC(=O)NC6=O)c5)CC4)cc3)CN(C)C2)cnn(C)c1=O (stereo partly shown) [Compound 342]
- DC50 (KAT2B): 1 to 30 nM
- DC50 (KAT2A): < 1 nM

Compound: CN1C[C@H](Nc2cnn(C)c(=O)c2Cl)C[C@H](c2ccc(CN3CCC4(CC3)CCN(c3ccc(C5CCC(=O)NC5=O)c(C(F)(F)F)c3)CC4)cc2)C1 (stereo partly shown) [Compound 343]
- DC50 (KAT2B): > 30 nM
- DC50 (KAT2A): > 30 nM

Compound: CN1C[C@H](Nc2cnn(C)c(=O)c2Cl)C[C@H](c2ccc(CN3CCN(c4cncc(C5CCC(=O)NC5=O)c4)CC3)cc2)C1 (stereo partly shown) [Compound 344]
- DC50 (KAT2B): > 30 nM
- DC50 (KAT2A): > 30 nM

Compound: Cc1c(N[C@@H]2C[C@H](c3ccc(CN4CCN(c5cncc(C6CCC(=O)NC6=O)c5)CC4)cc3)CN(C)C2)cnn(C)c1=O (stereo partly shown) [Compound 346]
- DC50 (KAT2B): > 30 nM
- DC50 (KAT2A): > 30 nM

Compound: CN1C[C@H](Nc2cnn(C)c(=O)c2Cl)C[C@H](c2ccc(CN3CCN(c4cccc(C5CCC(=O)NC5=O)c4)CC34CC4)cc2)C1 (stereo partly shown) [Compound 347]
- DC50 (KAT2B): > 30 nM
- DC50 (KAT2A): 1 to 30 nM

Compound: CN1C[C@H](Nc2cnn(C)c(=O)c2Br)C[C@H](c2ccc(CN3CCN(c4cccc(C5CCC(=O)NC5=O)c4)CC34CC4)cc2)C1 (stereo partly shown) [Compound 348]
- DC50 (KAT2B): 1 to 30 nM
- DC50 (KAT2A): < 1 nM

Compound: Cc1c(N[C@@H]2C[C@H](c3ccc(CN4CCN(c5cccc(C6CCC(=O)NC6=O)c5)CC45CC5)cc3)CN(C)C2)cnn(C)c1=O (stereo partly shown) [Compound 349]
- DC50 (KAT2B): > 30 nM
- DC50 (KAT2A): < 1 nM

Compound: CN1C[C@H](Nc2cnn(C)c(=O)c2Br)C[C@H](c2ccc(CN3CCN(c4ccnc(C5CCC(=O)NC5=O)c4)CC3)cc2)C1 (stereo partly shown) [Compound 350]
- DC50 (KAT2B): > 30 nM
- DC50 (KAT2A): 1 to 30 nM

Compound: CN1C[C@H](Nc2cnn(C)c(=O)c2Cl)C[C@H](c2ccc(CN3CCN(c4ccnc(C5CCC(=O)NC5=O)c4)CC3)cc2)C1 (stereo partly shown) [Compound 351]
- DC50 (KAT2B): > 30 nM
- DC50 (KAT2A): 1 to 30 nM

Source: US20260306640A1, “TECHNOLOGIES TARGETING CELL STATES” (Auron Therapeutics, Inc., priority 2023, published 2026)
